{"source": "patent EP4635499A1", "about": "“PHARMACEUTICAL COMPOSITION FOR VASCULAR MALFORMATIONS AND METHOD FOR CURING VASCULAR MALFORMATIONS” (ARTham Therapeutics Inc., priority 2022, dated 2024)", "key": {"[1]": {"system": "vascular malformation patients", "experiment": "Randomized double-blind study in vascular malformation patients: hyperglycemia side effect diagnosed by a physician", "type": "in vivo, human", "details": "50 mg or 100 mg serabelisib once a day for 24 weeks; 35 patients; diagnosed by a physician based on test values such as a blood glucose value", "excerpt": "According to an embodiment, the side effects are hyperglycemia and hypercreatinemia. According to an embodiment, the side effect is hyperglycemia. In the present Description, \"hyperglycemia\" is an adverse event (side effect) associated with the pharmacological action of a drug and is diagnosed by a physician based on test values such as the blood glucose level.\nThe efficacy was confirmed in a randomized double-blind study in vascular malformation patients. A serabelisib-containing dry syrup (contained 200 mg of serabelisib in 1 g) was administered orally for 24 weeks once a day after breakfast at an adult serabelisib dose of 50 mg or an adult serabelisib dose of 100 mg. For the pediatric patients, the administered dose was made the dose calculated based on body surface area conversion according to the Crawford formula for each of the adult doses. The primary endpoint was the response rate based on the volume change (measured by MRI) of the target lesion at the end of 24 weeks of administration.\n• (1) The study is discontinued when a test value of 140 mg/dL or higher is observed for the blood glucose level (fasting) in the clinical test performed at each visit. • (2) The study is discontinued when the clinical tests performed at each visit meets all of the following criteria stipulated for each age group."}, "[2]": {"system": "vascular malformation patients", "experiment": "Randomized double-blind study in vascular malformation patients: response rate and volume change of target lesion measured by MRI", "type": "in vivo, human", "details": "oral; for RESPONSE RATE AT 12 WEEKS OF ADMINISTRATION: once a day after breakfast, week 12, response = complete + partial (at least 20% reduction in target lesion volume, MRI); for VOLUME CHANGE (AVERAGE VALUE) OF TARGET LESION AT 24 WEEKS OF ADMINISTRATION / RESPONSE RATE AT 24 WEEKS OF ADMINISTRATION: once a day, week 24; for VOLUME CHANGE (AVERAGE VALUE) OF TARGET LESION AT 24 WEEKS OF ADMINISTRATION: MRI; for RESPONSE RATE AT 24 WEEKS OF ADMINISTRATION: primary endpoint", "description": "The efficacy was confirmed in a randomized double-blind study in vascular malformation patients. A serabelisib-containing dry syrup (contained 200 mg of serabelisib in 1 g) was administered orally for 24 weeks once a day after breakfast at an adult serabelisib dose of 50 mg or an adult serabelisib dose of 100 mg. For the pediatric patients, the administered dose was made the dose calculated based on body surface area conversion according to the Crawford formula for each of the adult doses. The primary endpoint was the response rate based on the volume change (measured by MRI) of the target lesion at the end of 24 weeks of administration. In the analysis of the primary endpoint for evaluating efficacy, a complete response was defined as the disappearance of the target lesion and a partial response was defined as an at least 20% reduction in the volume of the target lesion in comparison to that at the time of the screening test. The 95% confidence interval for the response rate (the sum of complete responses and partial responses as a percentage of the total) based on the change in target lesion volume (measured by MRI) between prior to administration and the time point of completion of 24 weeks of administration, was calculated using the Clopper-Pearson method, and whether its lower limit exceeded 12.5% was checked. For the secondary endpoint, the […] based on the change in target lesion volume (measured by MRI) at the time point of completion of 12 weeks of administration was evaluated. With respect to blood vessel malformation lesions, cystic components of lymphatic malformations, lymphedema, lymph fluid, and lymphorrhea (including also intraosseous, extraosseous, and subcutaneous), which are components of vascular malformations, the target lesion detected using the T2 fat-suppressed image was selected for the target lesion and its volume was measured."}, "[3]": {"system": "vascular malformation patients", "experiment": "Randomized double-blind study in vascular malformation patients: pain severity by Visual Analogue Scale (VAS)", "type": "in vivo, human", "details": "for VAS AVERAGE VALUE / VAS MEDIAN VALUE: scale 0-100", "description": "The efficacy was confirmed in a randomized double-blind study in vascular malformation patients. A serabelisib-containing dry syrup (contained 200 mg of serabelisib in 1 g) was administered orally for 24 weeks once a day after breakfast at an adult serabelisib dose of 50 mg or an adult serabelisib dose of 100 mg. For the pediatric patients, the administered dose was made the dose calculated based on body surface area conversion according to the Crawford formula for each of the adult doses. The primary endpoint was the response rate based on the volume change (measured by MRI) of the target lesion at the end of 24 weeks of administration. The severity of pain at the baseline, week 4 of administration, week 12 of administration, and week 24 of administration was evaluated (using VAS). A 10-cm straight line was drawn on the recording paper; the left end was defined as 0 and the right end was defined as 100; \"0\" was assigned to a condition of \"pain completely absent\" and \"100\" was assigned to a condition of \"the worst pain, or a more severe pain cannot be imagined\"; and inquiry was made as to where the current pain level was on the straight line and this was recorded. It was also recorded when the information about a subject was provided by someone else who was not the subject. In addition, the subjects were classified into under 15 years and 15 years and over for the age when consent was obtained, and recording paper appropriate for each age group was used."}, "[4]": {"details": "existing therapeutic agents for vascular malformations; NPL 2, NPL 3; cited from earlier work"}}, "note": "“And” between values parts separate entries of the source, which are not always exact repeats. Equal values may be shown once."}
{"smiles": "Nc1nc2cc(-c3ccc4ncc(C(=O)N5CCOCC5)n4c3)ccc2o1", "note": "[ART-001, serabelisib]", "values": [{"measurement": "Hyperglycemia side effect", "setting": "[1]", "result": "no subject exhibited an event that was diagnosed as hyperglycemia"}, {"measurement": "RESPONSE RATE AT 12 WEEKS OF ADMINISTRATION", "setting": "[2]; 50 mg serabelisib (adult dose) as dry syrup, 17 subjects", "result": "0% (0)"}, {"measurement": "VOLUME CHANGE (AVERAGE VALUE) OF TARGET LESION AT 24 WEEKS OF ADMINISTRATION", "setting": "[2]; 50 mg serabelisib", "result": -2.3, "unit": "%"}, {"measurement": "RESPONSE RATE AT 24 WEEKS OF ADMINISTRATION", "setting": "[2]; 50 mg serabelisib, 17 subjects, 95% confidence interval 10.3% - 56.0% (Clopper-Pearson)", "result": "29.4% (6) and 29.4% (5)"}, {"measurement": "RESPONSE RATE AT 24 WEEKS OF ADMINISTRATION", "setting": "[2]; 50 mg serabelisib, 17 subjects, 95% confidence interval 10.3% - 56.0% (Clopper-Pearson), listed as serabelisib", "result": 29.4, "unit": "%"}, {"measurement": "RESPONSE RATE AT 12 WEEKS OF ADMINISTRATION", "setting": "[2]; 100 mg serabelisib (adult dose) as dry syrup, 18 subjects", "result": "16.7% (3)"}, {"measurement": "VOLUME CHANGE (AVERAGE VALUE) OF TARGET LESION AT 24 WEEKS OF ADMINISTRATION", "setting": "[2]; 100 mg serabelisib", "result": -12.6, "unit": "%"}, {"measurement": "RESPONSE RATE AT 24 WEEKS OF ADMINISTRATION", "setting": "[2]; 100 mg serabelisib, 18 subjects, 95% confidence interval 13.3% - 59.0% (Clopper-Pearson)", "result": "33.3% (6)"}, {"measurement": "RESPONSE RATE AT 24 WEEKS OF ADMINISTRATION", "setting": "[2]; 100 mg serabelisib, 18 subjects, 95% confidence interval 13.3% - 59.0% (Clopper-Pearson), listed as serabelisib", "result": 33.3, "unit": "%"}, {"measurement": "VAS AVERAGE VALUE", "setting": "[3]; 50 mg administration group, WEEK 4 OF ADMINISTRATION, baseline average 29.4", "result": 20.6}, {"measurement": "VAS MEDIAN VALUE", "setting": "[3]; 50 mg administration group, WEEK 4 OF ADMINISTRATION, baseline median 16.0", "result": 6.0}, {"measurement": "VAS AVERAGE VALUE", "setting": "[3]; 50 mg administration group, WEEK 12 OF ADMINISTRATION, baseline average 29.4", "result": 21.2}, {"measurement": "VAS AVERAGE VALUE", "setting": "[3]; 50 mg administration group, WEEK 24 OF ADMINISTRATION, baseline average 29.4", "result": 16.1}, {"measurement": "VAS MEDIAN VALUE", "setting": "[3]; 50 mg administration group, WEEK 24 OF ADMINISTRATION, baseline median 16.0", "result": 4.0}, {"measurement": "VAS AVERAGE VALUE", "setting": "[3]; 100 mg administration group, WEEK 4 OF ADMINISTRATION, baseline average 24.6", "result": 15.8}, {"measurement": "VAS MEDIAN VALUE", "setting": "[3]; 100 mg administration group, WEEK 4 OF ADMINISTRATION, baseline median 20.0", "result": 2.0}, {"measurement": "VAS AVERAGE VALUE", "setting": "[3]; 100 mg administration group, WEEK 12 OF ADMINISTRATION, baseline average 24.6", "result": 15.7}, {"measurement": "VAS MEDIAN VALUE", "setting": "[3]; 100 mg administration group, WEEK 12 OF ADMINISTRATION, baseline median 20.0", "result": 2.0}, {"measurement": "VAS AVERAGE VALUE", "setting": "[3]; 100 mg administration group, WEEK 24 OF ADMINISTRATION, baseline average 24.6", "result": 12.4}, {"measurement": "VAS MEDIAN VALUE", "setting": "[3]; 100 mg administration group, WEEK 24 OF ADMINISTRATION, baseline median 20.0", "result": 8.0}, {"measurement": "average values and median values of the VAS after the treatment", "setting": "[3]; both the 50 mg administration group and the 100 mg administration group, versus baseline", "result": "reduced"}]}
{"smiles": "Cc1nc(NC(=O)N2CCC[C@H]2C(N)=O)sc1-c1ccnc(C(C)(C)C(F)(F)F)c1", "note": "[Alpelisib, alpelisib]", "values": [{"measurement": "known side effects", "setting": "[4]", "result": "hyperglycemia"}]}
{"smiles": "CO[C@H]1C[C@@H]2CC[C@@H](C)[C@@](O)(O2)C(=O)C(=O)N2CCCC[C@H]2C(=O)O[C@H]([C@H](C)C[C@@H]2CC[C@@H](O)[C@H](OC)C2)CC(=O)[C@H](C)/C=C(\\C)[C@@H](O)[C@@H](OC)C(=O)[C@H](C)C[C@H](C)/C=C/C=C/C=C/1C", "note": "[Sirolimus, sirolimus]", "values": [{"measurement": "known side effects", "setting": "[4]", "result": "immunosuppression, hyperglycemia (unknown frequency)"}]}
